Experimental data taken from patent US10494360B2, “Inhibitors of indoleamine 2,3-dioxygenase” (NETHERLANDS TRANSLATIONAL RESEARCH CENTER B.V., priority 2016, dated 2019).
Values joined by “and” are separate entries in the source; they are usually repeats but may differ in a detail not shown here. Identical values can stand only once.

Target: IDO1 (Homo sapiens, UniProt P14902)
Assay: Biochemical IDO1 assay (NFK GreenScreen)
Set-up: Recombinant full-length IDO1 (Seegers, N., et al.) and all other assay components were diluted in IDO1 reaction buffer; made in house
Conditions: recombinant full-length IDO1 25 nM, L-tryptophan 100 μM, NFK Green detection; read-out: IC50, inhibitory potency on IDO1
Description: Inhibition of IDO1 activity can be measured by determining the enzymatic conversion of L-tryptophan into N-formylkynurenine (NFK) in a reaction mixture containing IDO1 and test compound. The formation of NFK can be detected directly by, for instance, high-performance liquid chromatography (HPLC) methods, or by intrinsic fluorescence.
Compounds were serially diluted in dimethylsulfoxide (DMSO) and finally in IDO1 reaction buffer, consisting of 50 mM NaH2PO4, pH7.0, supplemented with 0.05% Tween-20 (cat. No. P7949; Sigma Aldrich) and 1% glycerol. Recombinant full-length IDO1 (Seegers, N., et al.) and all other assay components were diluted in IDO1 reaction buffer. […] Subsequently, 10 μl of 0.4 mM of the substrate L-tryptophan was added, i.e., the final concentration of L-tryptophan was 100 μM. The DMSO concentration in the assay was 0.3%. […] Incubation was continued for 60 min at room temperature. Then, 10 μl of NFK Green™ (NTRC, Oss, The Netherlands) was added, the plate was sealed, and the reaction was developed for 3 hours at 37° C. To determine the production of N-formyl kynurenine (NFK), the seal was removed and fluorescence was read on an EnVision multimode reader (Perkin Elmer, Waltham, Mass., USA). IC50 were calculated using XLfit™ software (ID Business Solutions, Ltd., Surrey, U.K.).

IDO1, sequence (P14902 whole entry, species assumed): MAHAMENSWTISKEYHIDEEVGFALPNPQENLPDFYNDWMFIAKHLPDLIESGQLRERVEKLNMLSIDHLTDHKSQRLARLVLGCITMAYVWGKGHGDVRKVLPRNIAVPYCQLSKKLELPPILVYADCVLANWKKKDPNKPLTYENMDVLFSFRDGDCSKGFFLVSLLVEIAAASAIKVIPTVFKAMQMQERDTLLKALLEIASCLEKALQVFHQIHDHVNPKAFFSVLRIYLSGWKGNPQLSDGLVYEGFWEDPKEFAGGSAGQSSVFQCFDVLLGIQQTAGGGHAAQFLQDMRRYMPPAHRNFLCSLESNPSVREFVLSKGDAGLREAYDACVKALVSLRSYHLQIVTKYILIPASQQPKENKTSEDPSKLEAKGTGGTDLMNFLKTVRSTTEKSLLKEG

Row | Compound | IC50
1 | O=C1CN(C(=O)c2cc(F)ccc2Cl)C(c2cccc(Br)c2)N1O (centres unmarked) [Example 31, 2-(3-Bromophenyl)-1-(2-chloro-5-fluoro-benzoyl)-3-hydroxy-imidazolidin-4-one] | ≤ 5 µM and 1 to 5 µM
2 | O=C1CN(C(=O)c2cccc(F)c2)C(c2cccc(Br)c2)N1O (centres unmarked) [Example 36, 2-(3-Bromophenyl)-1-(3-fluorobenzoyl)-3-hydroxy-imidazolidin-4-one] | ≤ 1 µM
3 | O=C1CN(C(=O)c2c(F)cccc2C(F)(F)F)C(c2cccc(Br)c2)N1O (centres unmarked) [Example 37, 2-(3-Bromophenyl)-1-[2-fluoro-6-(trifluoromethyl)benzoyl]-3-hydroxy-imidazolidin-4-one] | ≤ 1 µM
4 | O=C1CN(C(=O)c2ccc(C(F)(F)F)cc2F)C(c2cccc(Br)c2)N1O (centres unmarked) [Example 38, 2-(3-Bromophenyl)-1-[2-fluoro-4-(trifluoromethyl)benzoyl]-3-hydroxy-imidazolidin-4-one] | ≤ 5 µM and 1 to 5 µM
5 | O=C1CN(C(=O)c2ccc(F)cc2)C(c2ccc(F)c(Br)c2)N1O (centres unmarked) [Example 40, 2-(3-Bromo-4-fluoro-phenyl)-1-(4-fluorobenzoyl)-3-hydroxy-imidazolidin-4-one] | ≤ 5 µM and 1 to 5 µM
6 | COc1ccc(C(=O)N2CC(=O)N(O)C2c2ccc(F)c(Br)c2)cc1 (centres unmarked) [Example 47, 2-(3-Bromo-4-fluoro-phenyl)-3-hydroxy-1-(4-methoxybenzoyl)imidazolidin-4-one] | ≤ 5 µM and 1 to 5 µM
7 | O=C1CN(C(=O)c2c(Cl)cccc2Cl)C(c2ccc(F)c(Br)c2)N1O (centres unmarked) [Example 48, 2-(3-Bromo-4-fluoro-phenyl)-1-(2,6-dichlorobenzoyl)-3-hydroxy-imidazolidin-4-one] | ≤ 5 µM and 1 to 5 µM
8 | O=C1CN(C(=O)c2ccccc2)C(c2ccc(F)c(Cl)c2)N1O (centres unmarked) [Example 50, 1-Benzoyl-2-(3-chloro-4-fluoro-phenyl)-3-hydroxy-imidazolidin-4-one] | ≤ 5 µM and 1 to 5 µM
9 | O=C1CN(C(=O)c2ccccc2)C(c2cccc(Cl)c2)N1O (centres unmarked) [Example 60, 1-Benzoyl-2-(3-chlorophenyl)-3-hydroxy-imidazolidin-4-one] | ≤ 5 µM and 1 to 5 µM
10 | O=C1CN(C(=O)c2cccnc2Cl)C(c2cccc(Br)c2)N1O (centres unmarked) [Example 61, 2-(3-Bromophenyl)-1-(2-chloropyridine-3-carbonyl)-3-hydroxy-imidazolidin-4-one] | ≤ 5 µM and 1 to 5 µM
11 | O=C1CN(C(=O)c2c(F)cccc2F)C(c2ccnc(Br)c2)N1O (centres unmarked) [Example 65, 2-(2-Bromo-4-pyridyl)-1-(2,6-difluorobenzoyl)-3-hydroxy-imidazolidin-4-one] | ≤ 5 µM and 1 to 5 µM
12 | Cc1cccc(C2N(O)C(=O)CN2C(=O)c2c(F)cccc2F)c1 (centres unmarked) [Example 69, 1-(2,6-Difluorobenzoyl)-3-hydroxy-2-(m-tolyl)imidazolidin-4-one] | ≤ 5 µM and 1 to 5 µM
13 | O=C1CN(C(=O)c2c(F)cccc2F)C(c2cccc(Br)c2F)N1O (centres unmarked) [Example 70, 2-(3-Bromo-2-fluoro-phenyl)-1-(2,6-difluorobenzoyl)-3-hydroxy-imidazolidin-4-one] | ≤ 5 µM and 1 to 5 µM
14 | O=C1CN(C(=O)c2ccc(Cc3ccccc3)cc2)C(c2cccc(Br)c2)N1O (centres unmarked) [Example 74, 1-(4-Benzylbenzoyl)-2-(3-bromophenyl)-3-hydroxy-imidazolidin-4-one] | ≤ 5 µM and 1 to 5 µM
15 | O=C1CN(C(=O)c2c(F)ccc([N+](=O)[O-])c2F)C(c2cccc(Br)c2)N1O (centres unmarked) [Example 75, 2-(3-Bromophenyl)-1-(2,6-difluoro-3-nitro-benzoyl)-3-hydroxy-imidazolidin-4-one] | ≤ 1 µM
16 | CC(=O)Nc1ccc(F)c(C(=O)N2CC(=O)N(O)C2c2cccc(Br)c2)c1F (centres unmarked) [Example 77, N-[3-[2-(3-bromophenyl)-3-hydroxy-4-oxo-imidazolidine-1-carbonyl]-2,4-difluoro-phenyl]acetamide] | ≤ 1 µM
17 | CS(=O)(=O)Nc1ccc(F)c(C(=O)N2CC(=O)N(O)C2c2cccc(Br)c2)c1F (centres unmarked) [Example 78, N-[3-[2-(3-bromophenyl)-3-hydroxy-4-oxo-imidazolidine-1-carbonyl]-2,4-difluoro-phenyl]methanesulfonamide] | ≤ 5 µM and 1 to 5 µM
